Patent publication US20250195604A1, “Compositions and Methods of Treatment of Certain Vasculitis Syndromes” (Soligenix, Inc., priority 2023, published 2025)
No end group written: not given here.

What was measured:
[1] = test system: fractionated radiation-induced mucositis; assay: Hamster model of fractionated radiation-induced mucositis; assay type: in vivo
From the text: Dusquetide has been extensively studied in animal models of both mucosal damage (where damage associated molecular patterns (DAMPS)) trigger the innate defense system) and bacterial infection (where pathogen associated molecular patterns (PAMPS)) trigger the innate defense system).

[2] = test system: MRSA; assay: MRSA infection in athymic nude mice; assay type: in vivo
[3] = test system: dextran sulphate sodium (DSS)-induced colitis; design: species or system male C57BL/6 mice; conditions: mouse, in vivo
[4] = Phase 1 studies, safety of IV dusquetide; assay type: in vivo, human; conditions: dose levels of 0.15 to 8.0 mg/kg
Experimental: The dosage form of dusquetide is an aqueous, aseptically processed, sterile solution for injection. Each vial contains 5 mL of a 60 mg/mL solution (300 mg of dusquetide). Dusquetide is formulated in water for injection and pH adjusted to a target value of 6.0. The preferred formulation of the present invention contains no excipients and has an osmolality of ˜300 mOsm/kg. Dusquetide drug product is diluted in sterile saline to the appropriate concentration for injection, determined on a mg/kg basis by the recipient's weight at a dose level of 1.5 mg/kg. Diluted dusquetide is administered as an intravenous (IV) infusion in 25 mL over 4 minutes, once every third day.
In a Phase 1 study, patients received single ascending doses (0.15 to 8.0 mg/kg) and multiple ascending doses (daily 7× 0.5 to 6.5 mg/kg) of dusquetide as 4-minutes IV infusions. To determine the pharmacodynamic profile of dusquetide, cytokine and chemokine analytes were quantified after 4 h of in vitro stimulation of whole blood with LPS (E. coli) to determine dusquetide effects on dose, gender and any extended impact on PD.

[5] = test system: mouse blood challenged with LPS; assay: LPS challenge of mouse blood exposed to dusquetide in vitro; assay type: cell-based; conditions: dusquetide exposure in vitro
From the text: The innate immune system involves numerous cell types distributed throughout the body in both circulating and tissue-resident compartments. The interaction of all the cells defines the aggregate response. […] Nevertheless, cellular and molecular studies with individual cell types or sub-groups of cell types are informative but must be interpreted cautiously when used to predict the behavior of the system in vivo. […] By contrast, when dusquetide exposure of either mouse or human blood occurs in vitro, although the TNFα response to LPS challenge is unaffected, the MCP-1 response is reduced. The responses of mouse and human primary blood cells to dusquetide in this in vitro setting are quantitatively and qualitatively similar.

[6] = test system: mucositis (oral and lower GI tract); conditions: mice after chemotherapy, Kudrimoti 2016; cited from earlier work
[7] = test system: mouse macrophage-like cell line; assay: Signalling after dusquetide exposure in mouse macrophage-like cell line; assay type: cell-based
[8] = test system: cytokine and chemokine levels; assay: Circulating cytokine and chemokine levels in NHPs; assay type: in vivo, NHP
[9] = test system: severe oral mucositis (SOM); assay: Phase 2 study of oral mucositis in head and neck cancer patients receiving radiation and cisplatin (IDR-OM-01); assay type: in vivo, human
Experimental: The Phase 2 study was designed to examine the effects of dusquetide on ameliorating OM in patients with oral or oropharyngeal squamous cell carcinoma who were undergoing therapy with fractionated radiation (2.0-2.2 Gy per day for a total planned cumulative dose of 55-75 Gy) and chemotherapy with cisplatin given either as “low dose” (30-40 mg/m2 every week) or as “high dose” or “aggressive” cisplatin (80-100 mg/m2 given every 3 weeks). Dusquetide was evaluated in this dose ranging study at doses of 1.5, 3.0 (3 patients only) and 6.0 mg/kg.

[10] = hamster, fractionated radiation
[11] = 1.5 mg/kg, all patients, vs placebo
[12] = 1.5 mg/kg, every 3rd week cisplatin subpopulation
[13] = 1.5 mg/kg, every 3rd week cisplatin subpopulation, vs placebo

RIVPA-NH2 [dusquetide, L-arginyl-L-isoleucyl-L-valyl-L-prolyl-L-alanine-amide]
efficacy by regimen ([1]; every 2nd or 3rd day at 25 mg/kg): effective | duration of SOM [1, 10]: decrease | intensity of SOM [1, 10]: decrease | survival [2]: survival benefit | degree of response compared with 3 mg/kg prednisolone of 0.5 mg/kg budesonide [3]: similar | safety of administration [4]: safely administered | MCP-1 response to LPS challenge [5]: reduced | TNFα response to LPS challenge [5]: unaffected | duration of mucositis [6]: decreased | intensity of mucositis [6]: decreased | C/EBPB activation [7]: transient activation | p38 MAP kinase activation [7]: transient activation | MCP-1 levels ([8]; NHP, transient): modest changes | IL-1ra level ([8]; NHPs): marked but variable increase | levels of most cytokines and chemokines ([8]; NHPs): no substantial changes | median duration of SOM ([9]; 1.5 mg/kg, all patients): 9 days | reduction in median duration of SOM vs placebo ([9]; 1.5 mg/kg, all patients): 50% | reduction in median AUC for the WHO Grade-time calculation [9, 11]: 39% | reduction in the incidence of SOM [9, 11]: 7% | decrease in median duration of SOM vs placebo [9, 12]: 67% | median duration of SOM [9, 12]: 10 days | onset of disease [9, 12]: no impact | reduction in median AUC WHO Grade-time calculation [9, 13]: 51% | relative reduction in incidence of SOM [9, 13]: 18% | AUC (WHO Grade-time) ([9]; 1.5 mg/kg, weekly cisplatin): 10.5 | decrease in median duration of SOM vs placebo ([9]; 1.5 mg/kg, weekly cisplatin): 50% | median duration of SOM ([9]; 1.5 mg/kg, weekly cisplatin): 5 days | reduction in the AUC vs placebo ([9]; 1.5 mg/kg, weekly cisplatin): 55% | most efficacious dose ([9]; dose ranging 1.5, 3.0 and 6.0 mg/kg): 1.5 mg/kg
